Consider four compounds from patent US11529342B2, “Sorbic and benzoic acid and derivatives thereof enhance the activity of a neuropharmaceutical” (Los Angeles Biomedical Research Institute at Harbor-UCLA …, priority 2009, dated 2022).

In data set [1] the test system is Male 129 SVE adult mice. Put plainly: Prepulse inhibition (PPI) of acoustic startle, amphetamine disruption. The format is in vivo. As to conditions: for PPI, correction of disruption by amphetamine: sarcosine 200 mg/kg, benzoate 100 mg/kg or both, amphetamine 10 mg/kg 30 minutes before. The text has this:
(§1) Therefore, to test the hypothesis that combinational NMDA-enhancing agent treatment has better efficacy than individual agent alone, we tested startle habituation and PPI in animals receiving single NMDA-enhancing agents, sarcosine (N-methylglycine, a glycine transporter-1 inhibitor), benzoate (a D-amino acid oxidase inhibitor), the combination of both agents or the vehicle. We also tested the hypothesis in a well accepted pharmacological model of schizophrenia, amphetamine--disruption of startle habituation and PPI.
For the systematic investigation of the neurobiological systems that modulate sensorimotor inhibition, startle magnitude was investigated. Startle magnitude is reduced when the pulse stimulus is preceded 30 to 500 msec by a weak prepulse. This inhibition (“gating”) of a motor response elicited by a weak sensory event, termed PPI, provides an operational measure of sensorimotor gating. Prepulse stimuli of 3, 6, or 12 dB above the 70 dB background noise inhibit the startle response elicited by 120-dB pulse stimuli.
Prestimuli used in intranodal studies of sensorimotor gating of acoustic startle are by the delivery of a discrete acoustic prepulse several msec before the startle pulse, with an intensity below startle threshold. […]
There were a total of 36 trials in the experiments. […] For each mouse the following metrics were determined: 1) Average response magnitude on pulse--only trials 1 to 6 and 32 to 36; 2)Average response magnitude in each of the four trial types between trials 7 and 31 inclusively (i.e., ten pulse-only trials and five each of the three prepulse variations). The first block of pulse-only trials were analyzed as measures of startle reactivity. The first and last blocks of pulse-only trials were analyzed together in a repeated measure ANOVA to assess habituation of acoustic startle across the test session. The […] (3, 6, or 12 dB above background) derived from trials 7 to 31 were used to assess PPI which was calculated for each mouse as: Percentage score: PPI=100%×{[pulse-only units−(prepulse pulse units)]/(pulse-only units)}. […]

Data set [2] concerns Male 129 SVE adult mice. Put plainly: Acoustic startle habituation in mice, with and without amphetamine disruption. The format is in vivo. As to conditions: for startle habituation, correction of amphetamine-induced disruption: amphetamine 10 mg/kg 30 minutes before the experiment.
Description: as §1
For habituation, we present six trials of a single acoustic stimulus to each mouse. To provide a consistent acoustic environment and to mask external noises, maintain a continuous background noise level of 70 dB within each startle chamber. We collected the peak or average response from each mouse on each of six trials, then averaged the six responses together for each mouse. Five more trials at the end of PPI were done. The results were averaged and compared to the original six trials. The difference of startle responses between the initial six and the last five trials were considered the amount of habituation. Analyses include the independent variable (e.g., vehicle or drug treatment) as a factor in analyses of variance (ANOVA) on the dependent measures (difference of the average of the first and last […]).
There were a total of 36 trials in the experiments. The three prepulse stimuli were with a duration of 20 msec. For each mouse the following metrics were determined: 1) Average response magnitude on pulse--only trials 1 to 6 and 32 to 36; 2)Average response magnitude in each of the four trial types between trials 7 and 31 inclusively (i.e., ten pulse-only trials and five each of the three prepulse variations). The first block of pulse-only trials were analyzed as measures of startle reactivity. The first and last blocks of pulse-only trials were analyzed together in a repeated measure ANOVA to assess habituation of acoustic startle across the test session. The […] (3, 6, or 12 dB above background) derived from trials 7 to 31 were used to assess PPI which was calculated for each mouse as: Percentage score: PPI=100%×{[pulse-only units−(prepulse pulse units)]/(pulse-only units)}.
Male 129 SVE adult mice were first tested at baseline. Four groups of 10 mice each were treated with sarcosine (200 mg/kg), benzoate (100 mg/kg), a combination of both sarcosine and benzoate (same doses as the individual treatment), or with vehicle for one week before the test. The mice continued to receive the drug until one week later when amphetamatine (10 mg/kg) was administered 30 minutes before the experiments.

In data set [3] the test system is schizophrenia patients. Put plainly: 6-week add-on trial in schizophrenia, safety and side-effect assessments. The format is in vivo, human. Conditions: 6 weeks. The text has this: All patients were then randomly assigned under double-blind conditions to receive a 6-week trial of placebo, or sodium benzoate (1 grams) daily. Patients were randomized in clusters of six subjects, without stratification, through a computer-generated randomization table to receive placebo or active drugs in a 1:1 ratio. To ensure concealment of the randomization assignment, study medication was provided in coded containers with supply of identical-appearing capsules of placebo or either of active compounds. The research pharmacist implemented random allocation and masked treatment assignment was communicated by telephone to research staff. Patients, caregivers, and investigators (except for the investigational pharmacist) were all masked to the assignment. Patient's compliance and safety were closely monitored by the research psychiatrists and the inpatient nursing staff.
Side-effect assessments included Simpson-Angus Rating Scale for EPS (6), Abnormal Involuntary Movement Scale (AIMS) for dyskinesia (7), and Barnes Akathesia Scale (8). Systemic side effects of treatments were evaluated by means of routine physical and neurological examinations, laboratory tests, and reviewed by applying the Udvalg for Kliniske Undersogelser (UKU) Side-effects Rating Scale (9).

For data set [4], the system named is schizophrenia patients. Put plainly: 6-week randomized double-blind placebo-controlled add-on trial in schizophrenia, efficacy (PANSS, SANS, Quality of Life, GAF). The format is in vivo, human. As to conditions: 1000-mg/day adjunctive to atypical antipsychotics, 6 weeks, n=18 per group. How it is done:
The research protocol was approved by the Institutional Review Boards (IRB) of the institute. Patients were screened and evaluated by the research psychiatrists. After complete description of the study to the subjects, written informed consent was obtained in line with the IRB's guidelines. The Structured Clinical Interview for DSM-IV was conducted for the diagnosis.
The dosing for the concurrent antipsychotics (all atypical antipsychotics), was an optimal dosing strategy which minimize side effects, especially extrapyramidal side effects (EPS), and can still yield favorable efficacy. […]
All patients were then randomly assigned under double-blind conditions to receive a 6-week trial of placebo, or sodium benzoate (1 grams) daily. […] Patient's compliance and safety were closely monitored by the research psychiatrists and the inpatient nursing staff.
The primary outcome measures were psychopathology changes measured by PANSS (3) and, Scales for the Assessment of Negative symptoms (SANS) (4) total scores, Quality of Life scale (10 items for inpatient use) (1, 5), and Global Assessment of Function (Axis V in DSM IV) (2). […]
Clinical ratings were performed by the research psychiatrists who were trained and experienced in the rating scales. Inter-rater reliability was analyzed with the ANOVA test. […]

The subject of data set [5] is rats. Put plainly: Forced swim test (FST). The format is in vivo. As to conditions: 500 mg/kg; for Immobility time (%): 5-min test, vehicle 46.94 ± 4.6; for duration of immobility compared to the vehicle control group: FST. The procedure: Following acclimation at least 7 days in the animal facility prior to initiation of behavioral testing, the animals (rats) were subjected to the forced swim test (FST). The method of the […] has been used in previous animal studies of depression, which was modified by Cryan from the Porsolt's FST. (Porsolt et al, 1977; Cryan et al, 2002) The test was performed using a acrylic cylinder (diameter, 20 cm; height, 40 cm) filled to a height of 30 cm with 25° C. water. Rats were processed to a 15-min conditioning swim. Following 24 h after their first exposure, the rats were again placed in the swim apparatus for 5 min. The behavior of rats was observed 5 min after the administration of various drug treatments or 0.9% saline (control). All behavioral testing was conducted between 1600-1800 h. On. the study day, the total periods of immobility during the 5-min testing period were recorded using the EthoVision Basic V 3.1 analysis program (Noldus, Wageningen, Netherlands). For the present experiment, the immobility threshold was set at 15% and a fixed averaging interval of 1 second was chosen to smooth the mobility parameter in EthoVision software. Below the immobile threshold, the animal is considered immobile. Using the settings, the activity of all rats was analyzed automatically and quantitatively for mobility and numbers of crossing vertical central line in the FST.

[6] abbreviates: mice, sarcosine 200 mg/kg, benzoate 100 mg/kg or both.

“Also recorded” adds a separate entry of the source.

As for `CNCC(=O)O` [sarcosine, N-methylglycine, reference compound], the “PPI, correction of disruption by amphetamine” value in data set [1] is recorded as “partially corrected”. The “startle habituation, correction of amphetamine-induced disruption” value was “combination treatment>benzoate>sarcosine” in data set [2] (setting [6]) and “partially correct the deficit; also recorded: only partially corrected the deficit” in data set [2] (mice, sarcosine 200 mg/kg, benzoate 100 mg/kg or both, listed as NMG).
`O=C([O-])c1ccccc1.[Na+]` [Sodium Benzoate, sodium benzoate]: in data set [1], the “PPI, correction of disruption by amphetamine” value is “partially corrected”. Moreover, in data set [2] (mice treated one week, sarcosine 200 mg/kg, benzoate 100 mg/kg or both, no amphetamine), the “startle habituation (difference of startle responses between initial and last trials)” value is “close to the effect seen in the combination treatment”. The “startle habituation, correction of amphetamine-induced disruption” value in data set [2] (setting [6]) is “partially correct the deficit; also recorded: better than sarcosine and close to effect seen in the combination treatment; also recorded: only partially corrected the deficit; also recorded: better than sarcosine and close to that seen in the combination treatment”. In data set [3] (adjunctive therapy), the safety and tolerability entry was “good safety and tolerability”. In data set [3] (benzoate versus placebo), the treatment-emergent side effects result was “all mild, short-lived, and not warranting medical treatment”. Further, in data set [4], the “positive and negative symptoms and quality of life versus placebo” value is “significantly improve positive and negative symptoms and quality of life than placebo”. Besides, in data set [5], the “Immobility time (%)” value is given as 40.17 ± 3.3% and the “duration of immobility compared to the vehicle control group” value is listed as “decrease the duration of immobility significantly”.
Regarding `C/C=C/C=C/C(=O)[O-].[K+]` [Potassium Sorbate, potassium sorbate], in data set [5], the “Immobility time (%)” value stood at 27.64 ± 6.2% and the “duration of immobility compared to the vehicle control group” value is on record as “decrease the duration of immobility significantly”.
`CC(N)Cc1ccccc1` (stereo not drawn) [amphetamine, reference compound]: the “effect of amphetamine on PPI” value in data set [1] (amphetamine 10 mg/kg 30 minutes before the experiments) is listed as “disrupted the inhibition in all treatments”. In data set [2] (mice, amphetamine 10 mg/kg 30 minutes before the experiments), the “effect of amphetamine on startle habituation” value is reported as “disrupted the habituation”.
